Experimental data: patent US10227350B2 (Gilead Sciences, Inc., priority 2016, dated 2019)

target: PI3Kβ (Homo sapiens (Human), UniProt P42338); test: TR-FRET enzymatic activity assay, PI3Kβ; type: biochemical; details: 2× Km ATP, 2 μM PIP2, 30 minutes at 25° C., read-out: IC50-PIP-Beta
Outline: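 Purified recombinant heterodimeric PI3Kβ; PIP3 formation read by TR-FRET as competition with fluorescent tracer for GRP-1 PH domain binding. Compounds incubated 30 min at 25 °C.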

Chain of PI3Kβ (P42338 whole entry, the tested form may be a part): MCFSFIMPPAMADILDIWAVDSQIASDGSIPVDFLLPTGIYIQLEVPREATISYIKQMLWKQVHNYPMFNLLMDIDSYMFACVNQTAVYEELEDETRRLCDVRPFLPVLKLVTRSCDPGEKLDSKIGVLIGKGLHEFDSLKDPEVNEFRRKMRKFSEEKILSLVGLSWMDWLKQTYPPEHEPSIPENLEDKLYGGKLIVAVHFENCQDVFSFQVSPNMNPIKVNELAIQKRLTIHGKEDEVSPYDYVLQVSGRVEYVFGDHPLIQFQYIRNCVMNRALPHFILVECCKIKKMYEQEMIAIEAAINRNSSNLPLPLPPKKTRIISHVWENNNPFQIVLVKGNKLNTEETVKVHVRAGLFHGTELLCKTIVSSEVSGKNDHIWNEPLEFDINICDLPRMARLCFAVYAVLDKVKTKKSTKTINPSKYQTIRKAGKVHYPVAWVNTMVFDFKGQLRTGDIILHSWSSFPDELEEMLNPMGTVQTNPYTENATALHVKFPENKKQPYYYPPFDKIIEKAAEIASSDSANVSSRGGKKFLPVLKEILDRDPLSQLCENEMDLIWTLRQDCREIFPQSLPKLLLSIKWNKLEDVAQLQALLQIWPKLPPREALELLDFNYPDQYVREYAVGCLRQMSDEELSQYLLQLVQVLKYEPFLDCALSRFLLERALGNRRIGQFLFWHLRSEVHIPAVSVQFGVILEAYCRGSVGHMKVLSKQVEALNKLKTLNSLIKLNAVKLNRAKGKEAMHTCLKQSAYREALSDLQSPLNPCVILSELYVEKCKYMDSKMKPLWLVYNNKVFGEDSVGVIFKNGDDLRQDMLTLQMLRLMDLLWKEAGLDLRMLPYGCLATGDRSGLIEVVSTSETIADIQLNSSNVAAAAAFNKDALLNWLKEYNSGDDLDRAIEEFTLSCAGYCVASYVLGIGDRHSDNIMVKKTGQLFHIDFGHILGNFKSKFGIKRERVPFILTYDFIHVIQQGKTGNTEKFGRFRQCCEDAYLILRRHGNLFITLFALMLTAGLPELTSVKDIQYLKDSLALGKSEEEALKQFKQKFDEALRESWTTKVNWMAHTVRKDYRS
Chain of PI3Kβ (P27986 whole entry partner, the tested form may be a part): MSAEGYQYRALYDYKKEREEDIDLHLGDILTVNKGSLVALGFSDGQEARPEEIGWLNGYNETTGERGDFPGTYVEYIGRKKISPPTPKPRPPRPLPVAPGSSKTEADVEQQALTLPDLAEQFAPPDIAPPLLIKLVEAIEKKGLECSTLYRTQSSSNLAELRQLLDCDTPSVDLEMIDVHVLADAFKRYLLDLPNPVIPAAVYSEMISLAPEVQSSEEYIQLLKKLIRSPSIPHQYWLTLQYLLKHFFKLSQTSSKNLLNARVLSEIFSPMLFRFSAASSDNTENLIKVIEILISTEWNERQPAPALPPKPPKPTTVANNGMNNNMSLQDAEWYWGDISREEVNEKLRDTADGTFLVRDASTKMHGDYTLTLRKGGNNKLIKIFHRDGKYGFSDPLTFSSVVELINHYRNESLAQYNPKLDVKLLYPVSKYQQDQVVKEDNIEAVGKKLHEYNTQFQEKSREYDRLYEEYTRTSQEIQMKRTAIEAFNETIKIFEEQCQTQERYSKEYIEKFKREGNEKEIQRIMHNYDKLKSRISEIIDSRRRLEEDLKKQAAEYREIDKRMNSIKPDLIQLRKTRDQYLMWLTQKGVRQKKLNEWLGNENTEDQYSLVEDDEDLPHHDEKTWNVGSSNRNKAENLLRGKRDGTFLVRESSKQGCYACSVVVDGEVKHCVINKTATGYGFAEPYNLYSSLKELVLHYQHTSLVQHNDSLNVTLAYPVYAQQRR

Structure (SMILES)	IC50 [µM]
Cc1nc2c(-c3nnc[nH]3)cc(-c3ccnc(C(F)F)c3)cc2n1-c1ccnc2c(F)ccc(F)c12 [Example 43, 4-(6-(2-(difluoromethyl)pyridin-4-yl)-2-methyl-4-(4H-1,2,4-triazol-3-yl)-1H-benzo[d]imidazol-1-yl)-5,8-difluoroquinoline]	0.03
Cc1c(-c2cc(-c3nnc[nH]3)c3nc(C)n(-c4ccnc5c(F)ccc(F)c45)c3c2)ccnc1F [Example 46, 5,8-difluoro-4-[6-(2-fluoro-3-methylpyridin-4-yl)-2-methyl-4-(4H-1,2,4-triazol-3-yl)benzimidazol-1-yl]quinoline]	1.1
Fc1nccc(-c2cc(-c3nnc[nH]3)c3ncn(-c4ccnc5c(F)ccc(F)c45)c3c2)c1F [Example 47, 4-[6-(2,3-difluoropyridin-4-yl)-4-(4H-1,2,4-triazol-3-yl)benzimidazol-1-yl]-5,8-difluoroquinoline]	0.046
Cc1nc2c(-c3nnc[nH]3)cc(-c3ccnc(N)c3)cc2n1-c1ccnc2c(F)ccc(F)c12 [Example 48, 4-[3-(5,8-difluoroquinolin-4-yl)-2-methyl-7-(4H-1,2,4-triazol-3-yl)benzimidazol-5-yl]pyridin-2-amine]	0.01
CCc1nc2c(-c3nnc[nH]3)cc(-c3ccnc(N)c3)cc2n1-c1ccnc2cc(F)ccc12 [Example 52, 4-[2-ethyl-3-(7-fluoroquinolin-4-yl)-7-(4H-1,2,4-triazol-3-yl)benzimidazol-5-yl]pyridin-2-amine]	0.33
Cc1nc2c(-c3nnc[nH]3)cc(-c3ccnc(N)c3)cc2n1-c1ccnc2cc(F)ccc12 [Example 53, 4-[3-(7-fluoroquinolin-4-yl)-2-methyl-7-(4H-1,2,4-triazol-3-yl)benzimidazol-5-yl]pyridin-2-amine]	0.18
Cc1nc2c(-c3nnc[nH]3)cc(-c3ccnc(N)n3)cc2n1-c1ccnc2c(Cl)cccc12 [Example 56, 4-[3-(8-chloroquinolin-4-yl)-2-methyl-7-(4H-1,2,4-triazol-3-yl)benzimidazol-5-yl]pyrimidin-2-amine]	0.009
Cc1nc2c(-c3nnc[nH]3)cc(-c3cc(N)nc(N)n3)cc2n1-c1ccnc2c(Cl)cccc12 [Example 57, 6-[3-(8-chloroquinolin-4-yl)-2-methyl-7-(4H-1,2,4-triazol-3-yl)benzimidazol-5-yl]pyrimidine-2,4-diamine]	0.29
Cc1nc2c(-c3nnc[nH]3)cc(-c3ccnc(N)c3)cc2n1-c1ccnc2c(Cl)cccc12 [Example 58, 4-(1-(8-chloroquinolin-4-yl)-2-methyl-4-(4H-1,2,4-triazol-3-yl)-1H-benzo[d]imidazol-6-yl)pyridin-2-amine]	0.01
Nc1cc(-c2cc(-c3nnc[nH]3)c3nc(C4CC4)n(-c4ccnc5c(F)cccc45)c3c2)ccn1 [Example 60, 4-[2-cyclopropyl-3-(8-fluoroquinolin-4-yl)-7-(4H-1,2,4-triazol-3-yl)benzimidazol-5-yl]pyridin-2-amine]	0.42
Cc1nc2c(-c3nnc[nH]3)cc(-c3ccnc(N)c3)cc2n1-c1ccnc2c(F)cccc12 [Example 61, 4-[3-(8-fluoroquinolin-4-yl)-2-methyl-7-(4H-1,2,4-triazol-3-yl)benzimidazol-5-yl]pyridin-2-amine]	0.035
Nc1cc(-c2cc(-c3nnc[nH]3)c3nc(C4CC4)n(-c4ccnc5c(Cl)ccc(F)c45)c3c2)ccn1 [Example 62, 4-[3-(8-chloro-5-fluoroquinolin-4-yl)-2-cyclopropyl-7-(4H-1,2,4-triazol-3-yl)benzimidazol-5-yl]pyridin-2-amine]	0.008
CCCc1nc2c(-c3nnc[nH]3)cc(-c3ccnc(N)c3)cc2n1-c1ccnc2c(Cl)ccc(F)c12 [Example 63, 4-[3-(8-chloro-5-fluoroquinolin-4-yl)-2-propyl-7-(4H-1,2,4-triazol-3-yl)benzimidazol-5-yl]pyridin-2-amine]	0.007
CCc1nc2c(-c3nnc[nH]3)cc(-c3ccnc(N)c3)cc2n1-c1ccnc2c(F)ccc(F)c12 [Example 70, 4-[3-(5,8-difluoroquinolin-4-yl)-2-ethyl-7-(4H-1,2,4-triazol-3-yl)benzimidazol-5-yl]pyridin-2-amine]	0.013
Nc1cc(-c2cc(-c3nnc[nH]3)c3nc(CC4CC4)n(-c4ccnc5c(F)ccc(F)c45)c3c2)ccn1 [Example 71, 4-[2-(cyclopropylmethyl)-3-(5,8-difluoroquinolin-4-yl)-7-(4H-1,2,4-triazol-3-yl)benzimidazol-5-yl]pyridin-2-amine]	0.013
Cc1nc2c(-c3nnc[nH]3)cc(-c3ccnc(N)c3F)cc2n1-c1ccnc2c(F)ccc(F)c12 [Example 75, 4-[3-(5,8-difluoroquinolin-4-yl)-2-methyl-7-(4H-1,2,4-triazol-3-yl)benzimidazol-5-yl]-3-fluoropyridin-2-amine]	0.003

More lines, in order of falling IC50, values ahead:

IC50 [µM]	Structure (SMILES)
0.27	Cc1nc2c(-c3nnc[nH]3)cc(-c3cc(N)ncn3)cc2n1-c1ccnc2c(Cl)cccc12 [Example 59, 6-[3-(8-chloroquinolin-4-yl)-2-methyl-7-(4H-1,2,4-triazol-3-yl)benzimidazol-5-yl]pyrimidin-4-amine]
0.2	Cc1nnc(-c2cc(-c3ccnc(N)c3)cc3c2nc(C2CC2)n3-c2ccnc3c(Cl)ccc(F)c23)[nH]1 [Example 64, 4-[3-(8-chloro-5-fluoroquinolin-4-yl)-2-cyclopropyl-7-(5-methyl-4H-1,2,4-triazol-3-yl)benzimidazol-5-yl]pyridin-2-amine]
0.17	Cc1nnc(-c2cc(-c3ccnc(N)c3)cc3c2nc(C)n3-c2ccnc3c(Cl)cccc23)[nH]1 [Example 49, 4-[3-(8-chloroquinolin-4-yl)-2-methyl-7-(5-methyl-4H-1,2,4-triazol-3-yl)benzimidazol-5-yl]pyridin-2-amine]
0.14	Cc1nnc(-c2cc(-c3ccnc(N)c3)cc3c2nc(C(C)C)n3-c2ccnc3c(Cl)ccc(F)c23)[nH]1 [Example 66, 4-[3-(8-chloro-5-fluoroquinolin-4-yl)-7-(5-methyl-4H-1,2,4-triazol-3-yl)-2-propan-2-ylbenzimidazol-5-yl]pyridin-2-amine]
0.047	Nc1cc(-c2cc(-c3nnc[nH]3)c3nc(C4CC4)n(-c4ccnc5c(F)ccc(F)c45)c3c2)ccn1 [Example 69, 4-[2-cyclopropyl-3-(5,8-difluoroquinolin-4-yl)-7-(4H-1,2,4-triazol-3-yl)benzimidazol-5-yl]pyridin-2-amine]
0.036	CCc1nc2c(-c3nnc[nH]3)cc(-c3ccnc(N)c3)cc2n1-c1ccnc2cccc(F)c12 [Example 54, 4-[2-ethyl-3-(5-fluoroquinolin-4-yl)-7-(4H-1,2,4-triazol-3-yl)benzimidazol-5-yl]pyridin-2-amine]
0.035	Nc1cc(-c2cc(-c3nnc[nH]3)c3nc(C4COC4)n(-c4ccnc5c(Cl)ccc(F)c45)c3c2)ccn1 [Example 68, 4-[3-(8-chloro-5-fluoroquinolin-4-yl)-2-(oxetan-3-yl)-7-(4H-1,2,4-triazol-3-yl)benzimidazol-5-yl]pyridin-2-amine]
0.029	Nc1cc(-c2cc(-c3nnc[nH]3)c3nc(C4CC4)n(-c4ccnc5c(Cl)cccc45)c3c2)ccn1 [Example 74, 4-[3-(8-chloroquinolin-4-yl)-2-cyclopropyl-7-(4H-1,2,4-triazol-3-yl)benzimidazol-5-yl]pyridin-2-amine]
0.019	Cc1nc2c(-c3nnc[nH]3)cc(-c3ccnc(N)c3)cc2n1-c1ccnc2cccc(F)c12 [Example 55, 4-[3-(5-fluoroquinolin-4-yl)-2-methyl-7-(4H-1,2,4-triazol-3-yl)benzimidazol-5-yl]pyridin-2-amine]
0.017	Cc1nnc(-c2cc(-c3ccnc(N)c3)cc3c2nc(C)n3-c2ccnc3c(Cl)ccc(F)c23)[nH]1 [Example 50, 4-[3-(8-chloro-5-fluoroquinolin-4-yl)-2-methyl-7-(5-methyl-4H-1,2,4-triazol-3-yl)benzimidazol-5-yl]pyridin-2-amine]
0.016	CCCc1nc2c(-c3nnc(C)[nH]3)cc(-c3ccnc(N)c3)cc2n1-c1ccnc2c(Cl)ccc(F)c12 [Example 65, 4-[3-(8-chloro-5-fluoroquinolin-4-yl)-7-(5-methyl-4H-1,2,4-triazol-3-yl)-2-propylbenzimidazol-5-yl]pyridin-2-amine]
0.01	CCCc1nc2c(-c3nnc[nH]3)cc(-c3ccnc(N)c3)cc2n1-c1ccnc2c(F)ccc(F)c12 [Example 72, 4-[3-(5,8-difluoroquinolin-4-yl)-2-propyl-7-(4H-1,2,4-triazol-3-yl)benzimidazol-5-yl]pyridin-2-amine]
0.008	Cc1cc(-c2cc(-c3nnc[nH]3)c3nc(C)n(-c4ccnc5c(F)ccc(F)c45)c3c2)ccn1 [Example 45, 5,8-difluoro-4-[2-methyl-6-(2-methylpyridin-4-yl)-4-(4H-1,2,4-triazol-3-yl)benzimidazol-1-yl]quinoline]
0.008	CC(C)c1nc2c(-c3nnc[nH]3)cc(-c3ccnc(N)c3)cc2n1-c1ccnc2c(Cl)ccc(F)c12 [Example 67, 4-[3-(8-chloro-5-fluoroquinolin-4-yl)-2-propan-2-yl-7-(4H-1,2,4-triazol-3-yl)benzimidazol-5-yl]pyridin-2-amine]
0.008	Nc1cc(-c2cc(-c3nnc[nH]3)c3nc(CC4CC4)n(-c4ccnc5c(Cl)cccc45)c3c2)ccn1 [Example 73, 4-[3-(8-chloroquinolin-4-yl)-2-(cyclopropylmethyl)-7-(4H-1,2,4-triazol-3-yl)benzimidazol-5-yl]pyridin-2-amine]
0.004	Cc1nc2c(-c3nnc[nH]3)cc(-c3ccnc(C#N)c3)cc2n1-c1ccnc2c(F)ccc(F)c12 [Example 44, 4-[3-(5,8-difluoroquinolin-4-yl)-2-methyl-7-(4H-1,2,4-triazol-3-yl)benzimidazol-5-yl]pyridine-2-carbonitrile]
0.003	Cc1nc2c(-c3nnc[nH]3)cc(-c3ccnc(N)c3)cc2n1-c1ccnc2c(Cl)ccc(F)c12 [Example 51, 4-[3-(8-chloro-5-fluoroquinolin-4-yl)-2-methyl-7-(4H-1,2,4-triazol-3-yl)benzimidazol-5-yl]pyridin-2-amine]
